Measurements as given in ChEMBL document CHEMBL5143521, “Identification of a selective BRD4 PROTAC with potent antiproliferative effects in AR-positive prostate cancer based on a dual BET/PLK1 inhibitor” (Eur J Med Chem, 2022).
Activity calls are given as the source filed them.

Key:
[1] = tested on: MV4-11; assay: Antiproliferative activity against human MV4-11 cells assessed as reduction in cell viability measured after 4 days by MTT assay; type: functional, cell-based; details: MV4-11, 96 h
[2] = tested on: DU-145; assay: Antiproliferative activity against AR-negative human castration resistant DU-145 cells assessed as reduction in cell viability measured after 4 days by MTT assay; type: functional, cell-based; details: DU-145, 96 h
[3] = tested on: PC-3; assay: Antiproliferative activity against AR-negative human castration resistant PC-3 cells assessed as reduction in cell viability measured after 4 days by MTT assay; type: functional, cell-based; details: PC-3, 96 h
[4] = tested on: VCaP; assay: Inhibition of c-Myc expression level in human VCap cells at 10 nM incubated for 24 hrs by immunoblotting analysis; type: functional, cell-based
[5] = tested on: VCaP; assay: Antiproliferative activity against AR-positive human VCaP cells assessed as reduction in cell viability measured after 4 days by MTT assay; type: functional, cell-based; details: 96 h
[6] = tested on: CWR22R; assay: Antiproliferative activity against AR-positive human 22Rv1 cells assessed as reduction in cell viability measured after 4 days by MTT assay; type: functional, cell-based; details: 22Rv1, 96 h
[7] = tested on: LNCaP; assay: Antiproliferative activity against AR-positive harmone sensitive human LNCaP cells assessed as reduction in cell viability at 100 to 300 nM incubated for 3 days followed by compound washout and measured after 8 days; type: functional; details: dose 100-300 nM, time 3 day
[8] = tested on: CWR22R; assay: Antiproliferative activity against AR-positive human 22Rv1 cells assessed as reduction in cell viability at 100 to 300 nM incubated for 3 days followed by compound washout and measured after 8 days; type: functional; details: dose 100-300 nM, time 3 day
[9] = target: T1, Protein cereblon/Bromodomain-containing protein 4 (Homo sapiens) (UniProt O60885+Q96SW2); assay: Protac activity at BRD4/CRBN in AR-positive harmone sensitive human LNCaP cells assessed as degradation of BRD4 by measuring downregulation of BRD4 expression level at 1 nM by Western blot analysis; type: cell-based; details: time 2-48 hrs, TDE = time-dependent effect
[10] = target: T1, Protein cereblon/Bromodomain-containing protein 4 (Homo sapiens); assay: Protac activity at BRD4/CRBN in AR-positive human 22Rv1 cells assessed as degradation of BRD4 by measuring downregulation of BRD4 expression level at 1 nM by Western blot analysis; type: cell-based; details: time 2-48 hrs, TDE = time-dependent effect
[11] = tested on: LNCaP; assay: Downregulation of c-Myc […] expression level in AR-positive harmone sensitive human LNCaP cells at 1 nM by Western blot analysis; type: functional, cell-based; details: time 2-48 hrs, TDE = time-dependent effect
[12] = tested on: CWR22R; assay: Downregulation of c-Myc […] expression level in AR-positive human 22Rv1 cells at 1 nM by Western blot analysis; type: functional, cell-based; details: time 2-48 hrs, TDE = time-dependent effect
[13] = target: T1, Protein cereblon/Bromodomain-containing protein 4 (Homo sapiens); assay: Protac activity at BRD4/CRBN in AR-positive human VCaP cells assessed as degradation of BRD4 by measuring downregulation of BRD4 expression level measured after 24 hrs by Western blot analysis; type: cell-based; details: dose 1-10000 nM, DDE = dose-dependent effect
[14] = tested on: CWR22R; assay: Downregulation of c-Myc […] expression level in AR-positive human 22Rv1 cells measured after 24 hrs by Western blot analysis; type: functional, cell-based; details: dose 1-10000 nM, DDE = dose-dependent effect
[15] = tested on: VCaP; assay: Downregulation of c-Myc […] expression level in AR-positive human VCaP cells measured after 24 hrs by Western blot analysis; type: functional, cell-based; details: dose 1-10000 nM, DDE = dose-dependent effect
[16] = target: T1, Protein cereblon/Bromodomain-containing protein 4 (Homo sapiens); assay: Protac activity at BRD4/CRBN in AR-negative human castration resistant DU-145 cells assessed as degradation of BRD4 by measuring downregulation of BRD4 expression level at 1 nM by Western blot analysis; type: cell-based; details: time 2-48 hrs, TDE = time-dependent effect
[17] = target: T1, Protein cereblon/Bromodomain-containing protein 4 (Homo sapiens); assay: Protac activity at BRD4/CRBN in AR-negative human castration resistant DU-145 cells assessed as degradation of BRD4 by measuring downregulation of BRD4 expression level measured after 24 hrs by Western blot analysis; type: cell-based; details: dose 1-10000 nM, DDE = dose-dependent effect
[18] = target: T1, Protein cereblon/Bromodomain-containing protein 4 (Homo sapiens); assay: Protac activity at BRD4/CRBN in AR-positive human 22Rv1 cells assessed as degradation of BRD4 at 100 nM measured after 3 hrs in presence of cycloheximide by Western blot analysis; type: cell-based
[19] = target: Serine/threonine-protein kinase PLK1 (Homo sapiens, UniProt P53350); assay: Inhibition of PLK1 in AR-positive human 22Rv1 cells at 100 nM measured after 3 hrs in presence of cycloheximide by Western blot analysis; type: cell-based
[20] = target: T1, Protein cereblon/Bromodomain-containing protein 4 (Homo sapiens); assay: Protac activity at BRD4/CRBN in AR-positive human VCaP cells assessed as degradation of BRD4 at 1 uM measured after 24 hrs in presence of MG-132 by Western blot analysis; type: cell-based
[21] = target: T1, Protein cereblon/Bromodomain-containing protein 4 (Homo sapiens); assay: Protac activity at BRD4/CRBN in AR-positive human VCaP cells assessed as degradation of BRD4 at 1 uM measured after 24 hrs in presence of MLN4924 by Western blot analysis; type: cell-based
[22] = tested on: VCaP; assay: Downregulation of AR protein expression in AR-positive human VCaP cells at 100 nM measured after 48 hrs by Western blot analysis; type: functional, cell-based
[23] = tested on: VCaP; assay: Downregulation of TMPRSS2 gene expression in AR-positive human VCaP cells at 100 nM measured after 24 hrs by RT-qPCR analysis; type: functional, cell-based
[24] = tested on: VCaP; assay: Downregulation of FKBP5 gene expression in AR-positive human VCaP cells at 100 nM measured after 24 hrs by RT-qPCR analysis; type: functional, cell-based
[25] = tested on: VCaP; assay: Downregulation of BMPR1B gene expression in AR-positive human VCaP cells at 100 nM measured after 24 hrs by RT-qPCR analysis; type: functional, cell-based
[26] = tested on: CWR22R; assay: Induction of cell cycle arrest in AR-positive human 22Rv1 cells assessed as accumulation of cells at G0/G1 phase at 100 to 1000 nM measured after 72 hrs by flow cytometry analysis; type: functional, cell-based; details: dose 100-1000 nM
[27] = tested on: CWR22R; assay: Induction of cell cycle arrest in AR-positive human 22Rv1 cells assessed as downregulation of CDK4 expression at 100 to 1000 nM measured after 72 hrs by Western blot analysis; type: functional, cell-based; details: dose 100-1000 nM
[28] = tested on: CWR22R; assay: Induction of cell cycle arrest in AR-positive human 22Rv1 cells assessed as downregulation of CDK6 expression at 100 to 1000 nM measured after 72 hrs by Western blot analysis; type: functional, cell-based; details: dose 100-1000 nM
[29] = tested on: CWR22R; assay: Induction of cell cycle arrest in AR-positive human 22Rv1 cells assessed as downregulation of cyclin D1 expression at 100 to 1000 nM measured after 72 hrs by Western blot analysis; type: functional, cell-based; details: dose 100-1000 nM
[30] = tested on: CWR22R; assay: Induction of cell cycle arrest in AR-positive human 22Rv1 cells assessed as downregulation of cyclin E expression at 100 to 1000 nM measured after 72 hrs by Western blot analysis; type: functional, cell-based; details: dose 100-1000 nM
[31] = tested on: CWR22R; assay: Induction of cell cycle arrest in AR-positive human 22Rv1 cells assessed as downregulation of cyclin B1 expression at 100 to 1000 nM measured after 72 hrs by Western blot analysis; type: functional, cell-based; details: dose 100-1000 nM
[32] = tested on: CWR22R; assay: Induction of apoptosis in AR-positive human 22Rv1 cells assessed as increase in late apoptotic cells measured after 72 hrs by Annexin V-FITC/PI staining based flow cytometry method; type: functional, cell-based; details: dose 100-1000 nM, DDE = dose-dependent effect
[33] = tested on: CWR22R; assay: Induction of apoptosis in AR-positive human 22Rv1 cells assessed as upregulation of cleaved caspase-3 level measured after 72 hrs by Annexin V-FITC/PI staining based flow cytometry method; type: functional, cell-based; details: dose 100-1000 nM, DDE = dose-dependent effect
[34] = tested on: CWR22R; assay: Induction of apoptosis in AR-positive human 22Rv1 cells assessed as upregulation of cleaved PARP level measured after 72 hrs by Annexin V-FITC/PI staining based flow cytometry method; type: functional, cell-based; details: dose 100-1000 nM, DDE = dose-dependent effect

T1 sequence (Q96SW2 whole entry, looked up, other chains not shown): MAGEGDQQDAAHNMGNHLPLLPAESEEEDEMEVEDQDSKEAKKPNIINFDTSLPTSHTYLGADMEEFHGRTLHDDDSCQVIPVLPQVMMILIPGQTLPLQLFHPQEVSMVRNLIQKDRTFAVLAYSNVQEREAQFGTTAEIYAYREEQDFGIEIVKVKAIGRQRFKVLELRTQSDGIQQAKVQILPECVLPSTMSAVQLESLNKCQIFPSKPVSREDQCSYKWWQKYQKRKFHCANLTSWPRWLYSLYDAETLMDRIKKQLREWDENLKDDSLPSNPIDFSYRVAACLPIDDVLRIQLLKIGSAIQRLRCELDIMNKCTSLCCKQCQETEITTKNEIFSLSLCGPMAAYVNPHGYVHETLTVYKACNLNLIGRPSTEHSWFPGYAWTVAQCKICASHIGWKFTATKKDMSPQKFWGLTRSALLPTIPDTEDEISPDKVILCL
Serine/threonine-protein kinase PLK1, sequence (P53350 whole entry): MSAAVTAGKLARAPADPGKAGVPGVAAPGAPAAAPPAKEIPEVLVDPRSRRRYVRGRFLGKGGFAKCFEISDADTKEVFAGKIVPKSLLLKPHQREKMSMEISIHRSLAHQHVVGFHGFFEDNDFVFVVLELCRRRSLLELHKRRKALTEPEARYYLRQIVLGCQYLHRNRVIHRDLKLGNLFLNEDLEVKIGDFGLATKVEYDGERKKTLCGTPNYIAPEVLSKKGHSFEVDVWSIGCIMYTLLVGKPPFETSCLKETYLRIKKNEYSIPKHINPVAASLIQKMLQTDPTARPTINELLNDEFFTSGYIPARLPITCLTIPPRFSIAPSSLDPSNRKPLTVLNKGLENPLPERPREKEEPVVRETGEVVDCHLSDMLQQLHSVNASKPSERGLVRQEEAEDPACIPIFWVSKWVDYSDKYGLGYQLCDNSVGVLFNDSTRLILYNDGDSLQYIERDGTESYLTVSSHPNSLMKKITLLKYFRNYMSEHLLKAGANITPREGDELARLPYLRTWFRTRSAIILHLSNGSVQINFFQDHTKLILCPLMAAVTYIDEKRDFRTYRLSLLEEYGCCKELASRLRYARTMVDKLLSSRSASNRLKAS

CC[C@@H]1c2nnc(C)n2-c2cnc(Nc3ccc(C(=O)NC4CCN(C(=O)COc5cccc6c5C(=O)N(C5CCC(=O)NC5=O)C6=O)CC4)cc3OC)nc2N1CC1CCCCC1 (some centres undefined)
2440 nM: IC50 [3]
10000 nM: IC50 [2]
active: inhibition [4] | Activity [9] Tde | Activity [10] Tde | Activity [11] Tde | Activity [12] Tde | Activity [13] Dde | Activity [14] Dde | Activity [15] Dde | Activity [16] Tde | Activity [17] Dde | Activity [18] | inhibition [19] | Activity [20] | Activity [21] | Activity [22] | Activity [23] | Activity [24] | Activity [25] | Activity [26] | Activity [27] | Activity [28] | Activity [29] | Activity [30] | Activity [31] | Activity [32] Dde | Activity [33] Dde | Activity [34] Dde
53 nM: IC50 [6]
16 nM: IC50 [5]
100%: inhibition (INH) [7] | inhibition (INH) [8]
3 nM: IC50 [1]
